In patent publication US9193665B2, “Synthesis of galanal compounds and analogues thereof” (Academia Sinica, priority 2013, dated 2015):

Tests used:
DIO mice = assay: Oral glucose tolerance test (OGTT) in diet-induced obese (DIO) mice; assay type: in vivo; settings: fasted DIO mice, compound by gavage 30 min before oral glucose 2 g/kg, glucose measured 0-90 min, FIG. 2A/2B
Experimental: DIO mice were male C56BL/6J-Narl mice at age of 13 to 15 weeks that have been fed with Western Diet (TestDiet 5342) for 6 to 8 weeks. DIO mice were fasted for five hours and then gavaged with a compound described herein (e.g., compounds RJ21 and RJ27) at indicated dose or with vehicle alone. Thirty minutes later, the mice were gavaged with glucose (2 g/kg body weight). The level of blood glucose was measured right before and every 30 minutes after the glucose challenge up to 90 minutes. The data are expressed as mean±SD and analyzed by Student's t-test using Prism (GraphPad).
The effect of the compounds to the homeostasis of blood glucose using oral glucose tolerance test (OGTT) was examined in this example. Fasted DIO mice were gavaged with RJ21, RJ27, or vehicle alone, and received an oral glucose challenge (2 g/kg body weight) 30 minutes later. The level of blood glucose was measured right before (0 minute) and every 30 minutes after the glucose gavage.

GLP-1 receptor = target: T1, GLP-1 receptor (Rattus norvegicus, UniProt P32301); assay: GLP-1 dependent cAMP production from RIN-m5F cells (ELISA); assay type: cell-based; settings: 0.001 mg/ml compound
T1 construct: endogenous in cells; host or cells: RIN-m5F cells
T1 sequence (P32301 22-463): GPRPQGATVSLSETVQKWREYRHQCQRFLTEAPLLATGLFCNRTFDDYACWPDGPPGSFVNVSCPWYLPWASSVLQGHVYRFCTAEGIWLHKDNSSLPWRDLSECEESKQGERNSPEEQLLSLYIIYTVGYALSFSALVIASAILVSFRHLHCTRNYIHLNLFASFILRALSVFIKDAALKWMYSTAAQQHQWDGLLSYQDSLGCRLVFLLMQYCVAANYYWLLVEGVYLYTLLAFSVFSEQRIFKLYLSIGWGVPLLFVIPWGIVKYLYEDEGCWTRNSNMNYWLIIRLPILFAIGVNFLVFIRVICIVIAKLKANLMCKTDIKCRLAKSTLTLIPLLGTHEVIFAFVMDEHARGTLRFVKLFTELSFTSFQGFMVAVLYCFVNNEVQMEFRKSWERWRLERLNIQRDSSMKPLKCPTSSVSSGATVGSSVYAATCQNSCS
Experimental: The cells were cultured in 37° C. with 5% CO2 for 42 hours prior to cAMP production experiment.
The stimulation process was terminated by replacing the stimulation medium with 0.05 ml per well of ice-cold absolute ethanol, and further incubated at −20° C. for 20 min. The cellular cAMP was extracted with 0.085 ml PBS after the ethanol in the wells were evaporated in a vacuum desiccator for 35 min.
The total cAMP from each well was determined by ELISA method according the procedure recommended by the supplier.

| Molecule | blood glucose level versus vehicle-treated mice (DIO mice) | potentiation of the effect of GLP-1 on cAMP production (factor) (GLP-1 receptor; 30 nM GLP-1, RIN-m5F cells, 15 min) | cAMP generation by the compound by itself (agonist effect) (GLP-1 receptor; RIN-m5F cells, little cAMP response at 3 nM GLP-1) |
| --- | --- | --- | --- |
| COC(=O)C1=CC[C@H]2[C@@](C=O)(CCC3C(C)(C)CCC[C@@]32C)[C@H](O)C1 (stereo partly shown) [RJ27] | significantly lower |  |  |
| galanal B [RJ21] | significantly lower | 2 | did not affect |
